Measured values: US6603046B1, “Bis-aromatic a,β-unsaturated ketones” (Lica Pharmaceuticals A/S, priority 1992, dated 2003)
“And” between values parts separate entries of the source, which are not always exact repeats. Equal entries are not always repeated.

System: P. yoelii strain YM
Assay: P. yoelii strain YM infection in mice, parasitemia and mortality (Example 16)
Assay type: in vivo, BALB/c mice
Settings: for % parasitemia, Mean: orally 100 mg/kg/dose 3 and 24 h after infection
[1] = D + 2, 10 mg per kg twice daily days +1 to +4
[2] = D + 3, 10 mg per kg twice daily days +1 to +4
[3] = D + 4, 10 mg per kg twice daily days +1 to +4
[4] = D + 5, 10 mg per kg twice daily days +1 to +4
[5] = D + 6, 10 mg per kg twice daily days +1 to +4
[6] = D + 7, 10 mg per kg twice daily days +1 to +4
[7] = D + 8, 10 mg per kg twice daily days +1 to +4
[8] = D + 9, 10 mg per kg twice daily days +1 to +4

`C=CC(C)(C)c1cc(/C=C/C(=O)c2ccc(O)cc2)c(OC)cc1O` [Licochalcone A, licochalcone A] was tested, and the “Parasitemia, mean” value [1] was 0.1%, the “Parasitemia, single mice” value [1] was 0.1% and 0.01% and the “Parasitemia, mean” value [2] was 0.2%. The “Parasitemia, single mice” value [2] was 0.00% and 0.5% and 0.01%, the “Parasitemia, mean” value [3] was 0.4% and the “Parasitemia, single mice” value [3] was 0.00% and 1.2%. The “Parasitemia, single mice” value (D + 4, 10 mg/kg/day in 2 injections, days +1 to +6, 10 mg/kg/day) was 1.5% and 4.0%, the “Parasitemia, single mice” value (D + 4, 20 mg/kg/day in 2 injections, days +1 to +6, 20 mg/kg/day) was 0.01% and 0.0% and the “Parasitemia, single mice” value (D + 4, 40 mg/kg/day in 2 injections, days +1 to +6, 40 mg/kg/day) was 0.1% and 0.5%. For the same molecule, the “% parasitemia (mean ± SEM)” value (D + 4, i.p. 5 mg/kg/day twice daily, 3 h after infection and D + 1 to D + 3) was 1.6 ± 0.6%, the “% parasitemia (mean ± SEM)” value (D + 4, i.p. 10 mg/kg four times daily D + 4 to D + 7) was 14.2 ± 3.8% and the “% parasitemia (mean ± SEM)” value (D + 4, i.p. 10 mg/kg twice daily D-1, D0) was 1.2 ± 1.1%. For the same molecule, the “% parasitemia (mean ± SEM)” value (D + 4, i.p. 10 mg/kg/day twice daily, 3 h after infection and D + 1 to D + 3) was 1.1 ± 1.0%, the “% parasitemia (mean ± SEM)” value (D + 4, i.p. 15 mg/kg/day twice daily, 3 h after infection and D + 1 to D + 3) was 2.0 ± 2.0% and the “% parasitemia, Mean” value (D + 4) was 1.0%. The “Parasitemia, mean” value [4] was 0.7%, the “Parasitemia, single mice” value [4] was 0.1% and 1.5% and 0.00% and the “Parasitemia, single mice” value (D + 5, 10 mg/kg/day in 2 injections, days +1 to +6, 10 mg/kg/day) was 1.5% and 3.0%. For the same molecule, the “Parasitemia, single mice” value (D + 5, 20 mg/kg/day in 2 injections, days +1 to +6) was 0.0%, the “Parasitemia, single mice” value (D + 5, 40 mg/kg/day in 2 injections, days +1 to +6, 40 mg/kg/day) was 0.5% and 1.0% and the “Parasitemia, mean” value [5] was 2.2%. For the same molecule, the “Parasitemia, single mice” value [5] was 1.0% and 4.0% and 1.5%, the “Parasitemia, single mice” value (D + 6, 10 mg/kg/day in 2 injections, days +1 to +6, 10 mg/kg/day) was 2.0% and 2.5% and the “% parasitemia (mean ± SEM)” value (D + 6, 10 mg/kg/day twice daily, 3 h after infection, D + 1 to D + 5) was 0.1 ± 0.1%. For the same molecule, the “% parasitemia (mean ± SEM)” value (D + 6, 15 mg/kg/day twice daily, 3 h after infection, D + 1 to D + 5) was 0%, the “Parasitemia, single mice” value (D + 6, 20 mg/kg/day in 2 injections, days +1 to +6) was 0.0% and the “Parasitemia, single mice” value (D + 6, 40 mg/kg/day in 2 injections, days +1 to +6, 40 mg/kg/day) was 1.0% and 1.5%. For the same molecule, the “% parasitemia (mean ± SEM)” value (D + 6, i.p. 5 mg/kg/day twice daily, 3 h after infection and D + 1 to D + 3) was 13.8 ± 4.4%, the “% parasitemia (mean ± SEM)” value (D + 6, i.p. 10 mg/kg four times daily D + 4 to D + 7) was 6.6 ± 1.5% and the “% parasitemia (mean ± SEM)” value (D + 6, i.p. 10 mg/kg twice daily D-1, D0) was 9.7 ± 0.7%. The “% parasitemia (mean ± SEM)” value (D + 6, i.p. 10 mg/kg/day twice daily, 3 h after infection and D + 1 to D + 3) was 14.2 ± 4.6%, the “% parasitemia (mean ± SEM)” value (D + 6, i.p. 15 mg/kg/day twice daily, 3 h after infection and D + 1 to D + 3) was 10.4 ± 7.4% and the “Parasitemia, mean” value [6] was 3.0%. The “Parasitemia, single mice” value [6] was 2.0% and 4.0% and 3.0%, the “Parasitemia, single mice” value (D + 7, 10 mg/kg/day in 2 injections, days +1 to +6, 10 mg/kg/day) was 8.0% and 10.0% and the “Parasitemia, single mice” value (D + 7, 20 mg/kg/day in 2 injections, days +1 to +6, 20 mg/kg/day) was 0.01% and 0.05%. For the same molecule, the “Parasitemia, single mice” value (D + 7, 40 mg/kg/day in 2 injections, days +1 to +6, 40 mg/kg/day) was 4.5% and 5.8%, the “% parasitemia, Mean” value (D + 7) was 9.7% and the “Parasitemia, mean” value [7] was 6.7%. For the same molecule, the “Parasitemia, single mice” value [7] was 4.0% and 8.0%, the “Parasitemia, single mice” value (D + 8, 10 mg/kg/day in 2 injections, days +1 to +6, 10 mg/kg/day) was 18.0% and 20.0% and the “% parasitemia (mean ± SEM)” value (D + 8, 10 mg/kg/day twice daily, 3 h after infection, D + 1 to D + 5) was 0.7 ± 0.4%. For the same molecule, the “% parasitemia (mean ± SEM)” value (D + 8, 15 mg/kg/day twice daily, 3 h after infection, D + 1 to D + 5) was 0%, the “Parasitemia, single mice” value (D + 8, 20 mg/kg/day in 2 injections, days +1 to +6, 20 mg/kg/day) was 1.0% and 1.5% and the “Parasitemia, single mice” value (D + 8, 40 mg/kg/day in 2 injections, days +1 to +6, 40 mg/kg/day) was 12.0% and 15.0%. The “% parasitemia (mean ± SEM)” value (D + 8, i.p. 5 mg/kg/day twice daily, 3 h after infection and D + 1 to D + 3) was 36.6 ± 5.7%, the “% parasitemia (mean ± SEM)” value (D + 8, i.p. 10 mg/kg four times daily D + 4 to D + 7) was 17 ± 6.2% and the “% parasitemia (mean ± SEM)” value (D + 8, i.p. 10 mg/kg twice daily D-1, D0) was 27.8 ± 16.1%. For the same molecule, the “% parasitemia (mean ± SEM)” value (D + 8, i.p. 10 mg/kg/day twice daily, 3 h after infection and D + 1 to D + 3) was 30.2 ± 6.4%, the “% parasitemia (mean ± SEM)” value (D + 8, i.p. 15 mg/kg/day twice daily, 3 h after infection and D + 1 to D + 3) was 22 ± 11.6% and the “Parasitemia, mean” value [8] was 23.0%. For the same molecule, the “Parasitemia, single mice” value [8] was 20.0% and 18.0% and 31.0%, the “Parasitemia, mean” value (D + 10, 10 mg per kg twice daily days +1 to +4) was 25.5% and the “Parasitemia, single mice” value (D + 10, 10 mg/kg/day in 2 injections, days +1 to +6, 10 mg/kg/day) was 39.0% and 42.0%. For the same molecule, the “% parasitemia (mean ± SEM)” value (D + 10, 10 mg/kg/day twice daily, 3 h after infection, D + 1 to D + 5) was 6.0 ± 3.8%, the “% parasitemia (mean ± SEM)” value (D + 10, 15 mg/kg/day twice daily, 3 h after infection, D + 1 to D + 5) was 0% and the “Parasitemia, single mice” value (D + 10, 20 mg/kg/day in 2 injections, days +1 to +6, 20 mg/kg/day) was 5.0% and 8.0%. The “Parasitemia, single mice” value (D + 10, 40 mg/kg/day in 2 injections, days +1 to +6, 40 mg/kg/day) was 32.0% and 38.0%, the “mortality (no. of dead mice/total no. of tested mice)” value (D + 10, i.p. 5 mg/kg/day twice daily to D + 3) was “(2/5)” and the “% parasitemia (mean ± SEM)” value (D + 10, i.p. 5 mg/kg/day twice daily, 3 h after infection and D + 1 to D + 3) was 64 ± 5.0%. The “% parasitemia (mean ± SEM)” value (D + 10, i.p. 10 mg/kg four times daily D + 4 to D + 7) was 27.6 ± 12.1% and the “% parasitemia (mean ± SEM)” value (D + 10, i.p. 10 mg/kg twice daily D-1, D0) was 47.4 ± 27.7%.
